Drawing on patent EP4562003B1, “NOVEL 7-SUBSTITUTED INDOLE SULFONAMIDE DERIVATIVES” (F. Hoffmann-La Roche AG, priority 2022, dated 2024), this text covers IC50 for 27 molecules.

human GPR17 short isoform, sequence (Q13304 29-367): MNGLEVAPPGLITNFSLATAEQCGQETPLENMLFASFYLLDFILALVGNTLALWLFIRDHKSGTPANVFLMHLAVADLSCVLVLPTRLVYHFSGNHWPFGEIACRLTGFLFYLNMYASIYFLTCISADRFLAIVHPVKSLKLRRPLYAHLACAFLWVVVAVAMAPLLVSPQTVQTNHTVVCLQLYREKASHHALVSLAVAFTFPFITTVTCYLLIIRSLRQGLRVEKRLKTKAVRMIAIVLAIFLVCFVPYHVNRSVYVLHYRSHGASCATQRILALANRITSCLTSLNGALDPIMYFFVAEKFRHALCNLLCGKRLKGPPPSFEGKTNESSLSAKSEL

The assay addresses human GPR17 short isoform (Homo sapiens, UniProt Q13304). Briefly: GPR17 cAMP assay (TR-FRET cAMP quantification, antagonist mode). In kind it is cell-based. The settings on record: CHO-K1 cells stably expressing human GPR17 short isoform; EC80 of agonist MDL29,951; forskolin 15µM; IBMX 0.5mM; 30 minutes at room temperature; read-out: hGPR17 cAMP IC50. The method, then:
GPR17 cAMP Assay Protocol:
CHO-K1 cells stably expressing vector containing untagged human GPR17 short isoform (Roche) were cultured at 37°C / 5% CO2 in DMEM (Dulbecco's Modified Eagle Medium):F-12 (1:1) supplemented with 10% foetal bovine serum and 400 µg/ml Geneticin.
Changes in intracellular cyclic adenosine monophosphate (cAMP) levels were quantified using the Nano-TRF Detection Assay kit (Roche Diagnostics, Cat. No. 05214386001). This assay allows for direct cAMP quantification in a homogeneous solution. cAMP is detected based on time-resolved fluorescence energy transfer (TR-FRET) and competitive binding of ruthenylated cAMP and endogenous cAMP to an anti-cAMP monoclonal antibody labeled with AlexaFluor-700. The Ruthenium complex serves as the FRET donor and transfers energy to AlexaFluor-700. The FRET signal is inversely proportional to the cAMP concentration.
CHO-GPR17S cells were detached with Accutase and resuspended in assay buffer consisting of Hank's Balanced Salt Solution (HBSS), 10mM HEPES (4-(2-hydroxyethyl) piperazine-1-ethanesulfonic acid solution) and 0.1% bovine serum albumin (pH 7.4). The cells were seeded in black 384-well plates (Corning) at a density of 10'000 cells / 20µl assay buffer until the addition of compounds.
Test antagonist compounds were serially diluted in dimethyl sulfoxide (DMSO) and spotted in 384-well plates. The compounds were then diluted in HBSS buffer supplemented with an EC80 concentration of MDL29,951 (3-(2-Carboxy-4,6-dichloroindol-3-yl)propionic acid) (GPR17 agonist) plus 3-Isobutyl-1-methylxanthine (IBMX) (0.5mM final concentration) and added to the cells at room temperature. Forskolin (15µM final concentration) was added 5 minutes after the test compounds and the cells were incubated at room temperature for 30 minutes. The assay was stopped by adding cAMP detection mix (containing detergents for cell lysis) for 90 minutes at room temperature.
Cellular cAMP was measured using a Paradigm reader (Molecular Devices). The raw data was used to calculate the FRET signal based on the assay's P-factor as per cAMP kit instructions. The data was normalized to the maximal activity of a reference antagonist and dose response curves were fitted to the percent activity of the test compounds using a sigmoidal dose response model (Genedata Screener).
Results in the hGPR17 cAMP assay are provided for compounds of formula I in Table 1 Table 1: […]
A general note: Changes in cAMP serve as a functional read-out for many G protein-coupled receptors.
With `COc1nc(NS(=O)(=O)c2c[nH]c3c(-c4ncccn4)c(C)ccc23)nc(OC)c1CC(F)F` [Example 52, N-[5-(2,2-difluoroethyl)-4,6-dimethoxy-pyrimidin-2-yl]-6-methyl-7-(2-pyrimidyl)-1H-indole-3-sulfonamide], the IC50 is 22 nM.

As to `COc1nc(NS(=O)(=O)c2c[nH]c3c(-c4nccnc4C)cccc23)nc(OC)c1CC(F)F` [Example 53, N-[5-(2,2-difluoroethyl)-4,6-dimethoxy-pyrimidin-2-yl]-7-(3-methylpyrazin-2-yl)-1H-indole-3-sulfonamide], the IC50 was determined as 43 nM.

As for `COc1nc(NS(=O)(=O)c2c[nH]c3c(-c4nccnc4C)cccc23)nc(OC)c1OCC(F)F` [Example 54, N-[5-(2,2-difluoroethoxy)-4,6-dimethoxy-pyrimidin-2-yl]-7-(3-methylpyrazin-2-yl)-1H-indole-3-sulfonamide], the IC50 was determined as 64 nM.

With `COc1nc(NS(=O)(=O)c2c[nH]c3c(-c4ncccn4)c(C)ccc23)nc(OC)c1OC(F)F` [Example 55, N-[5-(difluoromethoxy)-4,6-dimethoxy-pyrimidin-2-yl]-6-methyl-7-(2-pyrimidyl)-1H-indole-3-sulfonamide], the IC50 amounted to 157 nM.

Take `COc1nc(NS(=O)(=O)c2c[nH]c3c(-c4ncccn4)c(C)ccc23)nc(OC)c1OCCF` [Example 56, N-[5-(2-fluoroethoxy)-4,6-dimethoxy-pyrimidin-2-yl]-6-methyl-7-(2-pyrimidyl)-1H-indole-3-sulfonamide]: the IC50 was 129 nM.

For the molecule `COc1nc(NS(=O)(=O)c2c[nH]c3c(-c4cccnn4)c(C)ccc23)nc(OC)c1OCC(F)F` [Example 57, N-[5-(2,2-difluoroethoxy)-4,6-dimethoxy-pyrimidin-2-yl]-6-methyl-7-pyridazin-3-yl-1H-indole-3-sulfonamide], the IC50 worked out at 109 nM.

Take `COc1nc(NS(=O)(=O)c2c[nH]c3c(-c4cnccn4)c(C)ccc23)nc(OC)c1OCC(F)F` [Example 58, N-[5-(2,2-difluoroethoxy)-4,6-dimethoxy-pyrimidin-2-yl]-6-methyl-7-pyrazin-2-yl-1H-indole-3-sulfonamide]: the IC50 came out at 51 nM.

With `COc1nc(NS(=O)(=O)c2c[nH]c3c(-c4cnccn4)c(C)ccc23)nc(OC)c1OC(F)F` [Example 59, N-[5-(difluoromethoxy)-4,6-dimethoxy-pyrimidin-2-yl]-6-methyl-7-pyrazin-2-yl-1H-indole-3-sulfonamide], the IC50 was 68 nM.

As to `COc1nc(NS(=O)(=O)c2c[nH]c3c(-c4ncccn4)c(Cl)c(F)cc23)nc(OC)c1OCC(F)F` [Example 60, 6-chloro-N-[5-(2,2-difluoroethoxy)-4,6-dimethoxy-pyrimidin-2-yl]-5-fluoro-7-(2-pyrimidyl)-1H-indole-3-sulfonamide], the IC50 was found to be 121 nM.

Take `COc1nc(NS(=O)(=O)c2c[nH]c3c(-c4ccn(C)n4)c(Cl)ccc23)nc(OC)c1OCC(F)F` [Example 61, 6-chloro-N-[5-(2,2-difluoroethoxy)-4,6-dimethoxy-pyrimidin-2-yl]-7-(1-methylpyrazol-3-yl)-1H-indole-3-sulfonamide]: the IC50 was 23 nM.

Take `COc1nc(NS(=O)(=O)c2c[nH]c3c(-c4ccnc(C)n4)c(Cl)ccc23)nc(OC)c1OCC(F)F` [Example 62, 6-chloro-N-[5-(2,2-difluoroethoxy)-4,6-dimethoxy-pyrimidin-2-yl]-7-(2-methylpyrimidin-4-yl)-1H-indole-3-sulfonamide]: the IC50 was found to be 37 nM.

Take `COc1nc(NS(=O)(=O)c2c[nH]c3c(-c4ccc(C)nn4)c(Cl)ccc23)nc(OC)c1OCC(F)F` [Example 63, 6-chloro-N-[5-(2,2-difluoroethoxy)-4,6-dimethoxy-pyrimidin-2-yl]-7-(6-methylpyridazin-3-yl)-1H-indole-3-sulfonamidemide]: the IC50 was found to be 45 nM.

For `COc1nc(NS(=O)(=O)c2c[nH]c3c(-c4nccnc4Cl)c(Cl)ccc23)nc(OC)c1OC(F)F` [Example 64, 6-chloro-7-(3-chloropyrazin-2-yl)-N-[5-(difluoromethoxy)-4,6-dimethoxy-pyrimidin-2-yl]-1H-indole-3-sulfonamide], the IC50 was determined as 35 nM.

Consider `COc1nc(NS(=O)(=O)c2c[nH]c3c(-c4nccnc4Cl)c(Cl)ccc23)nc(OC)c1CC(F)F` [Example 65, 6-chloro-7-(3-chloropyrazin-2-yl)-N-[5-(2,2-difluoroethyl)-4,6-dimethoxy-pyrimidin-2-yl]-1H-indole-3-sulfonamide], for which the IC50 came to 39 nM.

For the molecule `COc1nc(NS(=O)(=O)c2c[nH]c3c(-c4nccnc4Cl)c(Cl)ccc23)nc(OC)c1OCC(F)F` [Example 66, 6-chloro-7-(3-chloropyrazin-2-yl)-N-[5-(2,2-difluoroethoxy)-4,6-dimethoxy-pyrimidin-2-yl]-1H-indole-3-sulfonamide], the 50% inhibitory concentration (IC50) is 55 nM.

For `COc1nc(NS(=O)(=O)c2c[nH]c3c(-c4ccn(C)n4)c(Cl)ccc23)nc(OC)c1OC(F)F` [Example 67, 6-chloro-N-[5-(difluoromethoxy)-4,6-dimethoxy-pyrimidin-2-yl]-7-(1-methylpyrazol-3-yl)-1H-indole-3-sulfonamide], the IC50 amounted to 24 nM.

Take `COc1nc(NS(=O)(=O)c2c[nH]c3c(-c4ccn(C)n4)c(Cl)ccc23)nc(OC)c1OCCF` [Example 68, 6-chloro-N-[5-(2-fluoroethoxy)-4,6-dimethoxy-pyrimidin-2-yl]-7-(1-methylpyrazol-3-yl)-1H-indole-3-sulfonamide]: the IC50 was determined as 18 nM.

Turning to `COc1nc(NS(=O)(=O)c2c[nH]c3c(-c4cnn(C)c4)c(Br)ccc23)nc(OC)c1OCC(F)F` [Example 69, 6-bromo-N-[5-(2,2-difluoroethoxy)-4,6-dimethoxy-pyrimidin-2-yl]-7-(1-methylpyrazol-4-yl)-1H-indole-3-sulfonamide], the IC50 amounted to 56 nM.

As for `COc1nc(NS(=O)(=O)c2c[nH]c3c(-c4ccccc4)c(Cl)ccc23)nc(OC)c1OCC(F)F` [Example 70, 6-chloro-N-[5-(2,2-difluoroethoxy)-4,6-dimethoxy-pyrimidin-2-yl]-7-phenyl-1H-indole-3-sulfonamide], the IC50 amounted to 102 nM.

As to `COc1nc(NS(=O)(=O)c2c[nH]c3c(-c4ccccc4)c(Cl)ccc23)nc(OC)c1CC(F)F` [Example 71, 6-chloro-N-[5-(2,2-difluoroethyl)-4,6-dimethoxy-pyrimidin-2-yl]-7-phenyl-1H-indole-3-sulfonamide], the IC50 stood at 99 nM.

Regarding `COc1nc(NS(=O)(=O)c2c[nH]c3c(-c4ncccn4)cccc23)nc(OC)c1OCC(F)F` [Example 72, N-[5-(2,2-difluoroethoxy)-4,6-dimethoxy-pyrimidin-2-yl]-7-(2-pyrimidyl)-1H-indole-3-sulfonamide], the IC50 amounted to 1420 nM.

`COc1nc(NS(=O)(=O)c2c[nH]c3c(-c4nccnc4C)c(Cl)ccc23)nc(OC)c1OCC(F)F` [Example 73, 6-chloro-N-[5-(2,2-difluoroethoxy)-4,6-dimethoxy-pyrimidin-2-yl]-7-(3-methylpyrazin-2-yl)-1H-indole-3-sulfonamide]: the IC50 is 37 nM.

Turning to `COc1nc(NS(=O)(=O)c2c[nH]c3c(-c4nccnc4C)c(Cl)ccc23)nc(OC)c1CC(F)F` [Example 74, 6-chloro-N-[5-(2,2-difluoroethyl)-4,6-dimethoxy-pyrimidin-2-yl]-7-(3-methylpyrazin-2-yl)-1H-indole-3-sulfonamide], the IC50 worked out at 19 nM.

On to `COc1nc(NS(=O)(=O)c2c[nH]c3c(-c4ncccn4)c(Cl)ccc23)nc(OC)c1Br` [Example 75, N-(5-bromo-4,6-dimethoxy-pyrimidin-2-yl)-6-chloro-7-(2-pyrimidyl)-1H-indole-3-sulfonamide], for which the IC50 is 135 nM.

As to `COc1nc(NS(=O)(=O)c2c[nH]c3c(-c4ccncn4)c(Cl)ccc23)nc(OC)c1CC(F)F` [Example 76, 6-chloro-N-[5-(2,2-difluoroethyl)-4,6-dimethoxy-pyrimidin-2-yl]-7-(4-pyrimidyl)-1H-indole-3-sulfonamide], the IC50 stood at 21 nM.

For `COc1nc(NS(=O)(=O)c2c[nH]c3c(-c4ccncn4)c(Cl)ccc23)nc(OC)c1OCC(F)F` [Example 77, 6-chloro-N-[5-(2,2-difluoroethoxy)-4,6-dimethoxy-pyrimidin-2-yl]-7-(4-pyrimidyl)-1H-indole-3-sulfonamide], the IC50 is 24 nM.

On to `COc1nc(NS(=O)(=O)c2c[nH]c3c(-c4ncccn4)c(Cl)ccc23)nc(OC)c1OCC#N` [Example 78, 6-chloro-N-[5-(cyanomethoxy)-4,6-dimethoxy-pyrimidin-2-yl]-7-(2-pyrimidyl)-1H-indole-3-sulfonamide], for which the IC50 came to 122 nM.

By IC50 is commonly meant the concentration that gives 50% inhibition.
